Consider 22 molecules from patent US11702404B2, “GLP-1R modulating compounds” (priority 2019, dated 2023).

Data set [1] has as its target GLP-1R (Homo sapiens, UniProt P43220). The experiment in a line: GLP-1R activation: cAMP increase in CHO cells stably expressing GLP-1R. It counts as cell-based.
The nature of data set [2]: Microsomal stability, human liver microsomes (predicted hepatic clearance). The following applies: predicted from in vitro microsomal stability data.
The mark [3] stands for this setting: cAMP increase, CHO cells stably expressing GLP-1R, 10 point dose response, 30 minutes incubation, read-out: EC50.

Read-outs that look alike come from different tables or passages of the source.

The term EC50 denotes the midpoint of the concentration-response curve.

Sequence of GLP-1R (P43220 24-463): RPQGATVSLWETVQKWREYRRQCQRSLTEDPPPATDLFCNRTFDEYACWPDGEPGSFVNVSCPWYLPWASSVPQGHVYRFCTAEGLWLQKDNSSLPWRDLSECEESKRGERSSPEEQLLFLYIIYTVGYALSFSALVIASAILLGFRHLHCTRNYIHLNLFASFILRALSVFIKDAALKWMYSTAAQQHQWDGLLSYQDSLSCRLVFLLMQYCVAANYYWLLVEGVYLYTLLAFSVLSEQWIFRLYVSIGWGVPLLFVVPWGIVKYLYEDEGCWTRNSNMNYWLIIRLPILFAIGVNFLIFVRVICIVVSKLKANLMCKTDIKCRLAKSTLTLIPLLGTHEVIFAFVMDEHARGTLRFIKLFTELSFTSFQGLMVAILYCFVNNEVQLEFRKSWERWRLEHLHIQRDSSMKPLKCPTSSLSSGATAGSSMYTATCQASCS

As for `N#Cc1ccc(COc2cccc(-c3ccc(Cc4nc5ccc(C(=O)O)cc5n4CC4(c5ccncc5)CC4)c(F)c3)n2)c(F)c1` [Example 275, 2-(4-(6-((4-cyano-2-fluorobenzyl)oxy)pyridin-2-yl)-2-fluorobenzyl)-1-((1-(pyridin-4-yl)cyclopropyl)methyl)-1H-benzo[d]imidazole-6-carboxylic acid], the EC50 in data set [1] (setting [3]) came to 5.51 nM. Besides, the “Predicted Hepatic Clearance (Pred. Cl.)” value in data set [2] was 12.2 mL/min/kg.
Consider `N#Cc1ccc(COc2cccc(-c3ccc(Cc4nc5c(F)cc(C(=O)O)cc5n4CC4(CF)CC4)cc3F)n2)c(F)c1` [Example 276, 2-(4-(6-((4-cyano-2-fluorobenzyl)oxy)pyridin-2-yl)-3-fluorobenzyl)-4-fluoro-1-((1-(fluoromethyl)cyclopropyl)methyl)-1H-benzo[d]imidazole-6-carboxylic acid], for which, in data set [1] (setting [3]), the concentration for a half-maximal effect (EC50) turned out to be 0.23 nM. In data set [2], the “Predicted Hepatic Clearance (Pred. Cl.)” value is 6.42 mL/min/kg.
The matching figures for `N#Cc1ccc(COc2cccc(-c3ccc(Cc4nc5ccc(C(=O)O)nc5n4CC4(CF)CC4)cc3F)n2)c(F)c1` [Example 277, 2-(4-(6-((4-cyano-2-fluorobenzyl)oxy)pyridin-2-yl)-3-fluorobenzyl)-3-((1-(fluoromethyl)cyclopropyl)methyl)-3H-imidazo[4,5-b]pyridine-5-carboxylic acid]: 1.57 nM and 7.17 mL/min/kg.
The matching figures for `CC(C)(O)[C@H](F)Cn1c(Cc2ccc(-c3cccc(OCc4ccc(C#N)cc4F)n3)cc2F)nc2ccc(C(=O)O)cc21` [Example 278, (R)-2-(4-(6-((4-cyano-2-fluorobenzyl)oxy)pyridin-2-yl)-2-fluorobenzyl)-1-(2-fluoro-3-hydroxy-3-methylbutyl)-1H-benzo[d]imidazole-6-carboxylic acid]: 1640 nM and 3 mL/min/kg.
As to `CC(C)(C#N)Cn1c(Cc2ccc(-c3cccc(OCc4ccc(C#N)cc4F)n3)c(F)c2)nc2ccc(C(=O)O)cc21` [Example 279, 2-(4-(6-((4-cyano-2-fluorobenzyl)oxy)pyridin-2-yl)-3-fluorobenzyl)-1-(2-cyano-2-methylpropyl)-1H-benzo[d]imidazole-6-carboxylic acid], in data set [1] (setting [3]), the EC50 was 3.07 nM. Besides, the “Predicted Hepatic Clearance (Pred. Cl.)” value in data set [2] was 8.3 mL/min/kg.
The matching figures for `COCCn1c(Cc2cc(F)c(-c3ccnc(OCc4ccc(C#N)cc4F)n3)cc2F)nc2c(F)cc(C(=O)O)cc21` [Example 280, 2-(4-(2-((4-cyano-2-fluorobenzyl)oxy)pyrimidin-4-yl)-2,5-difluorobenzyl)-4-fluoro-1-(2-methoxyethyl)-1H-benzo[d]imidazole-6-carboxylic acid]: 0.62 nM and 4 mL/min/kg.
As for `N#CCC1(Cn2c(Cc3ccc(-c4ccnc(OCc5ccc(C#N)cc5F)n4)c(F)c3)nc3ccc(C(=O)O)cc32)CC1` [Example 281, 2-(4-(2-((4-cyano-2-fluorobenzyl)oxy)pyrimidin-4-yl)-3-fluorobenzyl)-1-((1-(cyanomethyl)cyclopropyl)methyl)-1H-benzo[d]imidazole-6-carboxylic acid], in data set [1] (setting [3]), the EC50 was determined as 2.3 nM. For the same molecule, the “Predicted Hepatic Clearance (Pred. Cl.)” value in data set [2] was 6.7 mL/min/kg.
The matching figures for `N#Cc1ccc(COc2cccc(-c3ccc(Cc4nc5ccc(C(=O)O)cc5n4CC4(n5ccnn5)CC4)c(F)c3)n2)c(F)c1` [Example 284, 1-((1-(1H-1,2,3-triazol-1-yl)cyclopropyl)methyl)-2-(4-(6-((4-cyano-2-fluorobenzyl)oxy)pyridin-2-yl)-2-fluorobenzyl)-1H-benzo[d]imidazole-6-carboxylic acid]: 2.87 nM and less than 1.83 mL/min/kg.
The corresponding values for `COCCn1c(Cc2ccc(-c3cccc(OCc4ccc(C#N)cc4F)n3)cc2F)nc2c(F)cc(C(=O)O)cc21` [Example 285, 2-(4-(6-((4-cyano-2-fluorobenzyl)oxy)pyridin-2-yl)-2-fluorobenzyl)-4-fluoro-1-(2-methoxyethyl)-1H-benzo[d]imidazole-6-carboxylic acid] are 2.19 nM and less than 1.83 mL/min/kg.
The corresponding values for `N#Cc1ccc(COc2cccc(-c3ccc(Cc4nc5ccc(C(=O)O)cc5n4CC4(CF)CC4)c(C#N)c3)n2)c(F)c1` [Example 286, 2-(2-cyano-4-(6-((4-cyano-2-fluorobenzyl)oxy)pyridin-2-yl)benzyl)-1-((1-(fluoromethyl)cyclopropyl)methyl)-1H-benzo[d]imidazole-6-carboxylic acid] are 21.2 nM and 2.62 mL/min/kg.
Turning to `N#CCC1(Cn2c(Cc3ccc(-c4cccc(OCc5ccc(C#N)cc5F)n4)c(F)c3)nc3c(F)cc(C(=O)O)cc32)CC1` [Example 287, 2-(4-(6-((4-cyano-2-fluorobenzyl)oxy)pyridin-2-yl)-3-fluorobenzyl)-1-((1-(cyanomethyl)cyclopropyl)methyl)-4-fluoro-1H-benzo[d]imidazole-6-carboxylic acid], in data set [1] (setting [3]), the 50% effective concentration (EC50) was 0.14 nM. In data set [2], the “Predicted Hepatic Clearance (Pred. Cl.)” value is 10.5 mL/min/kg.
The corresponding values for `N#Cc1ccc(COc2cccc(-c3ccc(Cc4nc5c(F)cc(C(=O)O)cc5n4CC4(C(F)F)CC4)cc3F)n2)c(F)c1` [Example 288, 2-(4-(6-((4-cyano-2-fluorobenzyl)oxy)pyridin-2-yl)-3-fluorobenzyl)-1-((1-(difluoromethyl)cyclopropyl)methyl)-4-fluoro-1H-benzo[d]imidazole-6-carboxylic acid] are 0.76 nM and 5.08 mL/min/kg.
On to `N#Cc1ccc(COc2cccc(-c3ccc(Cc4nc5ccc(C(=O)O)cc5n4CC4(Br)CC4)c(F)c3)n2)c(F)c1` [Example 289, 1-((1-bromocyclopropyl)methyl)-2-(4-(6-((4-cyano-2-fluorobenzyl)oxy)pyridin-2-yl)-2-fluorobenzyl)-1H-benzo[d]imidazole-6-carboxylic acid], for which the EC50 in data set [1] (setting [3]) amounted to 3.02 nM. The “Predicted Hepatic Clearance (Pred. Cl.)” value in data set [2] is 1.92 mL/min/kg.
The corresponding values for `CN(C)CC1(Cn2c(Cc3ccc(-c4cccc(OCc5ccc(C#N)cc5F)n4)cc3F)nc3ccc(C(=O)O)cc32)CC1` [Example 290, 2-(4-(6-((4-cyano-2-fluorobenzyl)oxy)pyridin-2-yl)-2-fluorobenzyl)-1-((1-((dimethylamino)methyl)cyclopropyl)methyl)-1H-benzo[d]imidazole-6-carboxylic acid] are 62.3 nM and 8.42 mL/min/kg.
In the case of `COCCC1(Cn2c(Cc3ccc(-c4cccc(OCc5ccc(C#N)cc5F)n4)cc3F)nc3ccc(C(=O)O)cc32)CC1` [Example 291, 2-(4-(6-((4-cyano-2-fluorobenzyl)oxy)pyridin-2-yl)-2-fluorobenzyl)-1-((1-(2-methoxyethyl)cyclopropyl)methyl)-1H-benzo[d]imidazole-6-carboxylic acid], the concentration giving a half-maximal response (EC50) in data set [1] (setting [3]) came out at 1.06 nM. The “Predicted Hepatic Clearance (Pred. Cl.)” value in data set [2] was less than 1.83 mL/min/kg.
The corresponding values for `N#Cc1ccc(COc2cccc(-c3ccc(Cc4nc5ccc(C(=O)O)cc5n4CC4(c5cccnc5)CC4)c(F)c3)n2)c(F)c1` [Example 292, 2-(4-(6-((4-cyano-2-fluorobenzyl)oxy)pyridin-2-yl)-2-fluorobenzyl)-1-((1-(pyridin-3-yl)cyclopropyl)methyl)-1H-benzo[d]imidazole-6-carboxylic acid] are 49.4 nM and 9.5 mL/min/kg.
The matching figures for `N#Cc1ccc(COc2cccc(-c3ccc(Cc4nc5ccc(C(=O)O)cc5n4CC4(C5CC5)CC4)c(F)c3)n2)c(F)c1` [Example 293, 1-([1,1′-bi(cyclopropan)]-1-ylmethyl)-2-(4-(6-((4-cyano-2-fluorobenzyl)oxy)pyridin-2-yl)-2-fluorobenzyl)-1H-benzo[d]imidazole-6-carboxylic acid]: 3.13 nM and less than 1.83 mL/min/kg.
Molecule `CC(C)(CF)Cn1c(Cc2ccc(-c3cccc(OCc4ccc(C#N)cc4F)n3)c(F)c2)nc2ccc(C(=O)O)cc21` [Example 294, 2-(4-(6-((4-cyano-2-fluorobenzyl)oxy)pyridin-2-yl)-3-fluorobenzyl)-1-(3-fluoro-2,2-dimethylpropyl)-1H-benzo[d]imidazole-6-carboxylic acid] returned an EC50 in data set [1] (EC50 (nM)) of 0.75 nM. Also, the “Predicted Hepatic Clearance (Pred. Cl.)” value in data set [2] is 8.3 mL/min/kg.
Take `CC(C)(Cn1c(Cc2ccc(-c3cccc(OCc4ccc(C#N)cc4F)n3)c(F)c2)nc2ccc(C(=O)O)cc21)C(F)F` [Example 295, 2-(4-(6-((4-cyano-2-fluorobenzyl)oxy)pyridin-2-yl)-3-fluorobenzyl)-1-(3,3-difluoro-2,2-dimethylpropyl)-1H-benzo[d]imidazole-6-carboxylic acid]: the 50% effective concentration (EC50) in data set [1] (setting [3]) turned out to be 2.12 nM. Further, the “Predicted Hepatic Clearance (Pred. Cl.)” value in data set [2] is 8.3 mL/min/kg.
As for `N#CCC1(Cn2c(Cc3ccc(-c4cccc(OCc5ccc(C#N)cc5F)n4)cc3F)nc3c(F)cc(C(=O)O)cc32)CC1` [Example 296, 2-(4-(6-((4-cyano-2-fluorobenzyl)oxy)pyridin-2-yl)-2-fluorobenzyl)-1-((1-(cyanomethyl)cyclopropyl)methyl)-4-fluoro-1H-benzo[d]imidazole-6-carboxylic acid], in data set [1] (setting [3]), the EC50 stood at 0.08 nM. Moreover, the “Predicted Hepatic Clearance (Pred. Cl.)” value in data set [2] is 5.33 mL/min/kg.
Take `N#Cc1ccc(COc2cccc(-c3ccc(Cc4nc5c(F)cc(C(=O)O)cc5n4CC4(C(F)F)CC4)c(F)c3)n2)c(F)c1` [Example 297, 2-(4-(6-((4-cyano-2-fluorobenzyl)oxy)pyridin-2-yl)-2-fluorobenzyl)-1-((1-(difluoromethyl)cyclopropyl)methyl)-4-fluoro-1H-benzo[d]imidazole-6-carboxylic acid]: the EC50 in data set [1] (setting [3]) turned out to be 1.71 nM. Further, the “Predicted Hepatic Clearance (Pred. Cl.)” value in data set [2] was 2.5 mL/min/kg.
The matching figures for `N#Cc1ccc(COc2nccc(-c3cc(F)c(Cc4nc5ccc(C(=O)O)nc5n4CC4(CF)CC4)c(F)c3)n2)c(F)c1` [Example 298, 2-(4-(2-((4-cyano-2-fluorobenzyl)oxy)pyrimidin-4-yl)-2,6-difluorobenzyl)-3-((1-(fluoromethyl)cyclopropyl)methyl)-3H-imidazo[4,5-b]pyridine-5-carboxylic acid]: 4.75 nM and less than 1.83 mL/min/kg.
